Data reported in patent publication EP1090634A1, “Agents for reducing cholesterol and lipid uptake” (Hauser, Helmut, priority 1999, dated 2001).

Test system: micellar dispersion consisting of 5 mM taurocholate, 0.6 mM oleic acid and 0.1 mM radiolabeled cholesterol
Test: In vitro precipitation of cholesterol-carrying bile salt micelles (radioactivity in supernatant after centrifugation; turbidity at 500 nm)
Settings: for precipitation: at the amount calculated for charge equivalence
Protocol: In order to determine the efficiency of specific cations, an in vitro test was used in which micelles comprising radio labeled cholesterol (cholesterol and micelles were produced according to known methods, see below) were generated. To a predetermined amount of such micelles, the respective precipitant was added in portions, and the precipitation formed upon addition of specific amounts of precipitant measured by two methods, namely by light scattering and by determination of the radioactivity in the supernatant after centrifugation.
A micellar dispersion consisting of 5 mM taurocholate, 0.6 mM oleic acid and 0.1 mM radiolabeled cholesterol was prepared as described before (Schulthess et al., J. Lipid Res. 37, 2405-19 (1996)) using Mg- and Ca-free phosphate-buffered saline (PBS) from Life Technologies, Basel, Switzerland. This stock solution was diluted by adding various amounts of precipitant in PBS, and PBS was added to a final volume of 1 ml. The mixture was shortly vortexed and incubated at room temperature for about 5 min before measuring its optical density (turbidity) at 500 nm. Precipitation (in %) was determined as follows: an aliquot of 200 µl of the incubation mixture was centrifuged for 3 min. at 100'000 g and the radioactivity of 100 µl supernatant was determined in a liquid scintillation counter. The radioactivity of 100 µl of the original mixture was also determined without centrifugation. The precipitation was determined as precipitation (%) = 100 [1-([…])] [formula] • A = radioactivity in supernatant without centrifugation • B = radioactivity in supernatant after centrifugation As a control: the precipitation (%) is determined in the absence of precipitant and a value of precipitation (%) = 2 ± 1 is obtained.

[1] = charge ratio (taurocholate/precipitant) 0.5, PBS
[2] = charge ratio (taurocholate/precipitant) 1, PBS
[3] = charge ratio (taurocholate/precipitant) 2, PBS
[4] = charge ratio (taurocholate/precipitant) 0.3, in 10 mM Arg and 10 mM Lys
[5] = charge ratio (taurocholate/precipitant) 0.3 ± 0.1, PBS
[6] = charge ratio (taurocholate/precipitant) 0.6, in 10 mM Arg and 10 mM Lys
[7] = charge ratio (taurocholate/precipitant) 1.2 ± 0.5, PBS
[8] = charge ratio (taurocholate/precipitant) 0.25, PBS
[9] = charge ratio (taurocholate/precipitant) 0.1, PBS
[10] = charge ratio (taurocholate/precipitant) 0.165, PBS
[11] = charge ratio (taurocholate/precipitant) 3, PBS
[12] = charge ratio (taurocholate/precipitant) 0.2, in PBS
[13] = charge ratio (taurocholate/precipitant) 1, in 50 mM Tris-HCl, pH=7.4
[14] = charge ratio (taurocholate/precipitant) 2, in 50 mM Tris-HCl, pH=7.4
[15] = charge ratio (taurocholate/precipitant) 1.4 ± 0.6, PBS
[16] = charge ratio (taurocholate/precipitant) 5, in PBS

NCCCCCCCCCCCCN [1,12 Diaminododecane]
Precipitation (%) (charge ratio (taurocholate/precipitant) 0.125, PBS): 100% | Turbidity (OD 500 nm) (charge ratio (taurocholate/precipitant) 0.125, PBS, maximal turbidity observed): 0.4 ± 0.05 (max) OD 500 nm | Precipitation (%) [1]: 65 ± 5% | Turbidity (OD 500 nm) [1]: 0.02 ± 0.01 OD 500 nm | Precipitation (%) [2]: 17 ± 4% | Turbidity (OD 500 nm) [2]: 0.01 ± 0.005 OD 500 nm | Precipitation (%) [3]: 13 ± 4% | Turbidity (OD 500 nm) [3]: 0.01 ± 0.005 OD 500 nm

Polylysine [Polylysine Mr = 21600]
precipitation (Figure 2, equivalence point: poly K = 0.0061 mM): 100% | Precipitation (%) [4]: 100% | Turbidity (OD 500 nm) [4]: 1.6 ± 0.2 OD 500 nm | Precipitation (%) [5]: 100% | Turbidity (OD 500 nm) [5]: 0.4 ± 0.03 OD 500 nm | Precipitation (%) [6]: 100% | Turbidity (OD 500 nm) [6]: 1.3 ± 0.1 OD 500 nm | Precipitation (%) [7]: 100% | Turbidity (OD 500 nm) [7]: 0.13 ± 0.05 OD 500 nm

NCCCC[C@H](N)C(=O)O [Lysine]
Precipitation (%) [8]: 0% | Turbidity (OD 500 nm) [8]: 0 OD 500 nm | Precipitation (%) [2]: 0% | Turbidity (OD 500 nm) [2]: 0 OD 500 nm

NCCCCCCN [1,6 Hexanediamine]
Precipitation (%) [9]: 0% | Turbidity (OD 500 nm) [9]: 0 OD 500 nm | Precipitation (%) [10]: 0% | Turbidity (OD 500 nm) [10]: 0 OD 500 nm

NCCCCCCCCCCN [1,10 Diaminodecane]
Precipitation (%) [1]: 0% | Turbidity (OD 500 nm) [1]: 0 OD 500 nm | Precipitation (%) [2]: 0% | Turbidity (OD 500 nm) [2]: 0 OD 500 nm | Precipitation (%) [11]: 0% | Turbidity (OD 500 nm) [11]: 0 OD 500 nm

Ca^2+
Precipitation (%) (charge ratio (taurocholate/precipitant) 0.2, in 50 mM Tris-HCl, pH=7.4): 0% | Turbidity (OD 500 nm) (charge ratio (taurocholate/precipitant) 0.2, in 50 mM Tris-HCl, pH=7.4, maximal turbidity observed): 0.23 ± 0.06 (max) OD 500 nm | Precipitation (%) [12]: 100% | Turbidity (OD 500 nm) (charge ratio (taurocholate/precipitant) 0.2, in PBS, maximal turbidity observed): 0.25 ± 0.05 (max) OD 500 nm | Precipitation (%) [13]: 0% | Turbidity (OD 500 nm) [13]: 0.12 ± 0.03 OD 500 nm | Precipitation (%) [14]: 0% | Turbidity (OD 500 nm) [14]: 0.13 ± 0.03 OD 500 nm

Polylysine [Polylysine Mr = 2300]
precipitation (Figure 3, equivalence point: poly K = 0.056 mM): 100% | Precipitation (%) (charge ratio (taurocholate/precipitant) 0.5 ± 0.1, PBS): 100% | Turbidity (OD 500 nm) (charge ratio (taurocholate/precipitant) 0.5 ± 0.1, PBS, maximal turbidity observed): 0.9 ± 0.1 (max) OD 500 nm | Precipitation (%) [15]: 100% | Turbidity (OD 500 nm) [15]: 0.6 ± 0.2 OD 500 nm

N=C(N)NCCC[C@H](N)C(=O)O [Arginine]
Precipitation (%) [8]: 0% | Turbidity (OD 500 nm) [8]: 0 OD 500 nm | Precipitation (%) [2]: 0% | Turbidity (OD 500 nm) [2]: 0 OD 500 nm

Mg^2+
Precipitation (%) [12]: 0% | Turbidity (OD 500 nm) [12]: 0 OD 500 nm | Precipitation (%) [16]: 0% | Turbidity (OD 500 nm) [16]: 0 OD 500 nm
